Test results: patent US20090304692A1, “TRIAZINE COMPOUNDS AS PI3 KINASE AND MTOR INHIBITORS” (Wyeth, priority 2008, published 2009)
Several values for one entry are separate records, joined by “and”; a condition that tells them apart may be missing. Identical values can stand only once. Like-named read-outs stand apart in the source and are kept apart here.

Key:
[1] = biological target: Human mTOR (FLAG-TOR) (Homo sapiens, UniProt P42345); experiment: mTOR kinase assay (DELFIA format, purified enzyme); assay type: biochemical; conditions: read-out: IC50 mTOR
Sequence of Human mTOR (FLAG-TOR) (P42345 1360-2549 limits assumed): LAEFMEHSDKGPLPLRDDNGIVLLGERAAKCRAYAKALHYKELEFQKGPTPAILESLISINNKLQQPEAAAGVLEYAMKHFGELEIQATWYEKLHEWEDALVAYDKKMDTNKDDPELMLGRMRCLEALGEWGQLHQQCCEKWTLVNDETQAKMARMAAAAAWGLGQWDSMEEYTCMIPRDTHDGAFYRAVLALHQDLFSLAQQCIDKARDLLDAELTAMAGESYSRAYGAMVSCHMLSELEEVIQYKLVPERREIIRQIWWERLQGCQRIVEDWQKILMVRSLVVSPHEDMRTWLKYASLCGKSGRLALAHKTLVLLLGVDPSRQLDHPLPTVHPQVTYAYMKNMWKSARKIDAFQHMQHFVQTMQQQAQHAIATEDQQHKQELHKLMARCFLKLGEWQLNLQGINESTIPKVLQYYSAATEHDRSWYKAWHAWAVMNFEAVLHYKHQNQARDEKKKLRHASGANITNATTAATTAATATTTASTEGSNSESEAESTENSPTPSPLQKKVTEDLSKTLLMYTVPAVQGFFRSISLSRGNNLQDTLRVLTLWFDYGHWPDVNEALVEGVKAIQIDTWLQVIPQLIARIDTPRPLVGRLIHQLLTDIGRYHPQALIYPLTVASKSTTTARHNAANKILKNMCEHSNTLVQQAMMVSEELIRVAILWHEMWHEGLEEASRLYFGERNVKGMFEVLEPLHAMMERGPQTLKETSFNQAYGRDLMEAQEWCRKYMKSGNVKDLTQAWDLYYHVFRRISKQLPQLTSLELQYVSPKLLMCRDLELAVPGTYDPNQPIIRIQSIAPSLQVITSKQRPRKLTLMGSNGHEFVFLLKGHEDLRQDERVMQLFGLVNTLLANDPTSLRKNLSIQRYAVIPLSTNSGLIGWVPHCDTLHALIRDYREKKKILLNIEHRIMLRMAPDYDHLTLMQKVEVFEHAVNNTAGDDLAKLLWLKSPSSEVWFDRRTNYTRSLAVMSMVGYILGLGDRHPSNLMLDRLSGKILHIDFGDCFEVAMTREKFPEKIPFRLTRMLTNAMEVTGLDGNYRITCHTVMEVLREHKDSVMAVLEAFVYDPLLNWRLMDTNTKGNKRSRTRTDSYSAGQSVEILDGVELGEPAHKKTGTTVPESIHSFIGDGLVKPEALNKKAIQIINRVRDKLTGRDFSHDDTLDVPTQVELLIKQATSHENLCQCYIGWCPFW

[2] = biological target: PI3K-γ (Homo sapiens, UniProt P48736); experiment: PI3K-gamma fluorescence polarization assay; conditions: read-out: IC50 PI3Kγ
Sequence of PI3K-γ (P48736 whole entry, species assumed): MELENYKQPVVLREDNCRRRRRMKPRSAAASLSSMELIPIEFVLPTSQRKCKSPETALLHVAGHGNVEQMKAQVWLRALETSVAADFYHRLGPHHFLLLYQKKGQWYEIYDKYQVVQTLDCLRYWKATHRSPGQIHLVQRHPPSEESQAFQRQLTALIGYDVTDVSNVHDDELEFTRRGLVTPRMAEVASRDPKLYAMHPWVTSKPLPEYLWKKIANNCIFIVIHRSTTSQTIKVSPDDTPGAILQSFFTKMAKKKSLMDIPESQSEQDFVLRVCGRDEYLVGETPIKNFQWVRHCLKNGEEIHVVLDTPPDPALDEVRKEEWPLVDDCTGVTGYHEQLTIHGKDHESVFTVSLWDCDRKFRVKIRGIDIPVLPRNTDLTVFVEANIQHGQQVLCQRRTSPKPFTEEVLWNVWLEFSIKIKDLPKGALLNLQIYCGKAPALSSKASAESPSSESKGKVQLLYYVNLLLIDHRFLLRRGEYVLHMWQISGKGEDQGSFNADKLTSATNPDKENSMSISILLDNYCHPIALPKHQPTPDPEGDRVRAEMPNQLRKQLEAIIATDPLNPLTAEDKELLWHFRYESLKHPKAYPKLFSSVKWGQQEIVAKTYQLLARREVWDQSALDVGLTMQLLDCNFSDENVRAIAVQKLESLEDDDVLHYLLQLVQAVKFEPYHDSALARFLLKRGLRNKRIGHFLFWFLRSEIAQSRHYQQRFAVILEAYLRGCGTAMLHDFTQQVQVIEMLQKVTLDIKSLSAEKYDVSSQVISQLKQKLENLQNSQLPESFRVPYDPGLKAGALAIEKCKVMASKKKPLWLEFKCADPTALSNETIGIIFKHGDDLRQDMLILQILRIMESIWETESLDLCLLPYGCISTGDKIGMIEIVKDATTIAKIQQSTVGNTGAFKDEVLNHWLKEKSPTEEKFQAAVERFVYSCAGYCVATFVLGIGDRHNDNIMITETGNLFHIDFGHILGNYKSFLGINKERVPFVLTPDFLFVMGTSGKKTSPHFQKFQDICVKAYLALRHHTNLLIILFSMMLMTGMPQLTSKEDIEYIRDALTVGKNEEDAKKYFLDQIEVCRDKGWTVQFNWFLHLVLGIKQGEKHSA

[3] = biological target: PI3K-α (Homo sapiens, UniProt P42336); experiment: PI3K-alpha fluorescence polarization assay; conditions: read-out: IC50 PI3Kα
Sequence of PI3K-α (P42336 whole entry, species assumed): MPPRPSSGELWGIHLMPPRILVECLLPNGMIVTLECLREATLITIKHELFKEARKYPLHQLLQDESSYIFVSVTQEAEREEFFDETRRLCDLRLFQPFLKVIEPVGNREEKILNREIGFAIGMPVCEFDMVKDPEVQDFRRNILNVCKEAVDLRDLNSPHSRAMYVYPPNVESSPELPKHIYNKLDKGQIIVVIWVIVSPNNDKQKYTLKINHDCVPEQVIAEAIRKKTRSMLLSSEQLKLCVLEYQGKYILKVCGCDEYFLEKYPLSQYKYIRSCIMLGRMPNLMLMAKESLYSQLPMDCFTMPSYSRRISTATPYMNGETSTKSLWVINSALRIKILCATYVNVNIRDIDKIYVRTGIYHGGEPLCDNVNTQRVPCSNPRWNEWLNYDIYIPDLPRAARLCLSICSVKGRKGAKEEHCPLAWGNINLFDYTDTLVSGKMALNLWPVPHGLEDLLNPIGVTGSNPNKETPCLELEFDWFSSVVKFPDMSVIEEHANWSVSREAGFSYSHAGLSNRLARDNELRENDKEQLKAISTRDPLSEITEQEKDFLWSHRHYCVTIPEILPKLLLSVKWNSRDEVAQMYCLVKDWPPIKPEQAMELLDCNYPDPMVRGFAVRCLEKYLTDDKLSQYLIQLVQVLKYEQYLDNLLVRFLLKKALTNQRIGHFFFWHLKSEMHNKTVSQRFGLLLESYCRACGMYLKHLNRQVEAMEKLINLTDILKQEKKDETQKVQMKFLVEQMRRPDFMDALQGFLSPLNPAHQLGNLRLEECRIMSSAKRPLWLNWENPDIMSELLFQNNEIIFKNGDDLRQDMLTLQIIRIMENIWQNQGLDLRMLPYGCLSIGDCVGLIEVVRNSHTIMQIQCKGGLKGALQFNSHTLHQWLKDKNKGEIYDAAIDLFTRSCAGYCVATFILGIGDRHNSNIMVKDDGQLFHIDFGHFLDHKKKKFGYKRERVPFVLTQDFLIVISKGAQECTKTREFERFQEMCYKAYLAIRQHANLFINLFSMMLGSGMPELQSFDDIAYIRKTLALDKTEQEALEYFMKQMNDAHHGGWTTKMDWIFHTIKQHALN
Sequence of PI3K-α (P27986 whole entry partner, species assumed): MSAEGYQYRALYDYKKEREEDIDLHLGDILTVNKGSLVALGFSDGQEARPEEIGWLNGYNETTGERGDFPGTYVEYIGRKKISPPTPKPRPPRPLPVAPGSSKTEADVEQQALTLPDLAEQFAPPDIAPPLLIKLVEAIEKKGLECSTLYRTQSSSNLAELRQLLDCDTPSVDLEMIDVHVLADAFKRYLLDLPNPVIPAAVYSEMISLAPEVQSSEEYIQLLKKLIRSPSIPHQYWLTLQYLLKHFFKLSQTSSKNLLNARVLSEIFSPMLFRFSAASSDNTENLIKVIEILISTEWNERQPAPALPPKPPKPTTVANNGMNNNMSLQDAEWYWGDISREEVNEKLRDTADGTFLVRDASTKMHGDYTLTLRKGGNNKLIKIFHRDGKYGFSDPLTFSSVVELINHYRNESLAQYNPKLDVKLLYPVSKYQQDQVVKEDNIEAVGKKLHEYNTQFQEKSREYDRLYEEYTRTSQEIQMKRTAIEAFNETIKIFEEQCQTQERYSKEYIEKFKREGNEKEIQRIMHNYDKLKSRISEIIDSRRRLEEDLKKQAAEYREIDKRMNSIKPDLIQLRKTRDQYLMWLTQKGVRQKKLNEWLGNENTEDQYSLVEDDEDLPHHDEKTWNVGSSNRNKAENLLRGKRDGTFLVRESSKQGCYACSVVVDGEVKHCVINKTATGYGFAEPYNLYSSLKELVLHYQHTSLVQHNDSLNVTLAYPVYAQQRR

[4] = tested on: human prostate PC3-mm2 tumor cell line; experiment: In vitro cell culture growth assay (MTS), PC3-mm2; assay type: cell-based; conditions: Homo sapiens, PC3MM2, 72 h, MTS cell growth assay, three days after drug treatment, read-out: IC50 PC3-mm2
[5] = tested on: human breast MDA-MB-361 tumor cell line; experiment: In vitro cell culture growth assay (MTS), MDA-MB-361; assay type: cell-based; conditions: Homo sapiens, MDA-MB-361, 72 h, MTS cell growth assay, three days after drug treatment, read-out: IC50 MDA-MB-361

Row | IC50 [1] | IC50 [2] | IC50 [3] | IC50 [4] | IC50 [5] | IC50 ([4]; PC3-mm2 cells) | Structure (SMILES) | further results
1 | 15 nM | 234 nM | 19 nM | 684 nM | 412 nM |  | CC(C)(C)OC(=O)N1CC(CNc2nc(-c3ccc(NC(=O)Nc4ccncc4)cc3)nc(N3CCOCC3)n2)C1 [Example 104, 3-({4-Morpholin-4-yl-6-[4-(3-pyridin-4-yl-ureido)-phenyl]-[1,3,5]triazin-2-ylamino}-methyl)-azetidine-1-carboxylic acid tert-butyl ester] | 
2 | 30.5 nM | 112 nM | 14 nM | > 10000 nM | 3710 nM |  | O=C(Nc1ccncc1)Nc1ccc(-c2nc(NCC3CNC3)nc(N3CCOCC3)n2)cc1 [Example 105, 1-(4-{4-[(azetidin-3-ylmethyl)-amino]-6-morpholin-4-yl-[1,3,5]triazin-2-yl}-phenyl)-3-pyridin-4-yl-urea] | 
3 | 8 nM and 12.4 nM | 132 nM | 14 nM | 416 nM | 191 nM | 416 nM | O=C(Nc1ccncc1)Nc1ccc(-c2nc(N3CCOCC3)nc(N3CCC4(CC3)OCCO4)n2)cc1 [Example 130, 1-{4-[4-(1,4-dioxa-8-azaspiro[4.5]dec-8-yl)-6-morpholin-4-yl-1,3,5-triazin-2-yl]phenyl}-3-pyridin-4-ylurea] | IC50 ([3]; listed as 705): 13.5 nM
4 | 14.5 nM | 336 nM | 25 nM | 839 nM | 696 nM | 839 nM | O=C(Nc1ccc(-c2nc(N3CCOCC3)nc(N3CCC4(CC3)OCCO4)n2)cc1)Nc1cccnc1 [Example 131, 1-{4-[4-(1,4-dioxa-8-azaspiro[4.5]dec-8-yl)-6-morpholin-4-yl-1,3,5-triazin-2-yl]phenyl}-3-pyridin-3-ylurea] | IC50 ([3]; listed as 706): 25.5 nM
5 | 26 nM and 34 nM | 234 nM | 14 nM | 1010 nM | 586 nM | 1010 nM | O=C(Nc1ccccc1)Nc1ccc(-c2nc(N3CCOCC3)nc(N3CCC4(CC3)OCCO4)n2)cc1 [Example 132, 1-{4-[4-(1,4-dioxa-8-azaspiro[4.5]dec-8-yl)-6-morpholin-4-yl-1,3,5-triazin-2-yl]phenyl}-3-phenylurea] | IC50 ([2]; listed as 707): 234 nM
6 | 43 nM | 8890 nM | 39 nM | 1950 nM | 795 nM | 1950 nM | CN(C)c1ccc(NC(=O)Nc2ccc(-c3nc(N4CCOCC4)nc(N4CCC5(CC4)OCCO5)n3)cc2)cc1 [Example 133, 1-[4-(dimethylamino)phenyl]-3-{4-[4-(1,4-dioxa-8-azaspiro[4.5]dec-8-yl)-6-morpholin-4-yl-1,3,5-triazin-2-yl]phenyl}urea] | IC50 ([2]; listed as 708): 8890 nM; IC50 ([3]; listed as 708): 39.5 nM
7 | 24.5 nM | 183 nM | 20 nM | 857 nM | 805 nM | 857 nM | N#Cc1ccc(NC(=O)Nc2ccc(-c3nc(N4CCOCC4)nc(N4CCC5(CC4)OCCO5)n3)cc2)cc1 [Example 134, 1-(4-cyanophenyl)-3-{4-[4-(1,4-dioxa-8-azaspiro[4.5]dec-8-yl)-6-morpholin-4-yl-1,3,5-triazin-2-yl]phenyl}urea] | IC50 ([2]; listed as 709): 182 nM
8 | 34 nM | 143 nM | 15 nM | 509 nM | 533 nM | 509 nM | Cc1cc(NC(=O)Nc2ccc(-c3nc(N4CCOCC4)nc(N4CCC5(CC4)OCCO5)n3)cc2)ccn1 [Example 135, 1-{4-[4-(1,4-dioxa-8-azaspiro[4.5]dec-8-yl)-6-morpholin-4-yl-1,3,5-triazin-2-yl]phenyl}-3-(2-methylpyridin-4-yl)urea] | IC50 ([2]; listed as 710): 144 nM; IC50 ([3]; listed as 710): 15.5 nM
9 | 8.55 nM | 117 nM | 9 nM | 551 nM | 582 nM | 551 nM | O=C(Nc1ccncc1)Nc1ccc(-c2nc(-c3cnc4ccccc4c3)nc(N3CCOCC3)n2)cc1 [Example 137, 1-[4-(4-morpholin-4-yl-6-quinolin-3-yl-1,3,5-triazin-2-yl)phenyl]-3-pyridin-4-ylurea] | IC50 ([3]; listed as 712): 9.5 nM
10 | 2 nM | 5 nM | 2 nM | 14 nM | 9 nM |  | O=C(Nc1ccc(C(=O)N2CCOCC2)cc1)Nc1ccc(-c2nc(N3CCOCC3)nc(N3CCOCC3)n2)cc1 [Example 152, 1-[4-(4,6-dimorpholin-4-yl-1,3,5-triazin-2-yl)phenyl]-3-[4-(morpholin-4-ylcarbonyl)phenyl]urea] | 
11 | 30 nM | 155 nM | 39 nM | 675 nM | 328 nM |  | Cc1nc(-c2ccc(NC(=O)Nc3ccncc3)cc2)nc(N2CCOCC2)n1 [Example 161, 1-[4-(4-methyl-6-morpholin-4-yl-1,3,5-triazin-2-yl)phenyl]-3-pyridin-4-ylurea] | 
12 | 3.9 nM and 3.2 nM | 9 nM | 2 nM | 28.3 nM | 10.7 nM | 28.3 nM | CN1CCN(C(=O)c2ccc(NC(=O)Nc3ccc(-c4nc(C5=CCOCC5)nc(N5CCOCC5)n4)cc3)cc2)CC1 [Example 163, 1-{4-[4-(3,6-dihydro-2H-pyran-4-yl)-6-morpholin-4-yl-1,3,5-triazin-2-yl]phenyl}-3-{4-[(4-methylpiperazin-1-yl)carbonyl]phenyl}urea] | IC50 ([2]; listed as 507): 8.7 nM; IC50 ([3]; listed as 507): 1.6 nM; IC50 ([5]; MDA-MB-361 cells): 10.7 nM
13 | 28 nM | 101 nM | 9 nM | 333 nM | 210 nM |  | Cc1nc(-c2ccc(NC(=O)Nc3ccc(C(=O)N(C)CCN(C)C)cc3)cc2)nc(N2CCOCC2)n1 [Example 165, N-[2-(dimethylamino)ethyl]-N-methyl-4-({[4-(4-methyl-6-morpholin-4-yl-1,3,5-triazin-2-yl)phenyl]carbamoyl}amino)benzamide] | 
14 | 60 nM | 33 nM | 4 nM | 249 nM | 134 nM |  | Cc1nc(-c2ccc(NC(=O)Nc3ccc(C(=O)N4CCN(C)CC4)cc3)cc2)nc(N2CCOCC2)n1 [Example 166, 1-[4-(4-methyl-6-morpholin-4-yl-1,3,5-triazin-2-yl)phenyl]-3-{4-[(4-methylpiperazin-1-yl)carbonyl]phenyl}urea] | 
15 | 4 nM | 143 nM | 30 nM | 2090 nM | 1250 nM |  | CCCCc1nc(-c2ccc(NC(=O)Nc3ccc(C(=O)O)cc3)cc2)nc(N2CCOCC2)n1 [Example 184, 4-({[4-(4-butyl-6-morpholin-4-yl-1,3,5-triazin-2-yl)phenyl]carbamoyl}amino)benzoic acid] | 
16 | 6 nM | 221 nM | 28 nM | 703 nM | 473 nM |  | CCCCc1nc(-c2ccc(NC(=O)Nc3ccncc3)cc2)nc(N2CCOCC2)n1 [Example 186, 1-[4-(4-butyl-6-morpholin-4-yl-1,3,5-triazin-2-yl)phenyl]-3-pyridin-4-ylurea] | 
17 | 28 nM | 203 nM | 19 nM | 99 nM | 84 nM |  | O=C(Nc1ccncc1)Nc1ccc(-c2nc(N3CCOCC3)nc(N3C[C@@H]4C[C@H]3CO4)n2)cc1 [Example 189, 1-(4-{4-morpholin-4-yl-6-[(1S,4S)-2-oxa-5-azabicyclo[2.2.1]hept-5-yl]-1,3,5-triazin-2-yl}phenyl)-3-pyridin-4-ylurea] | 
18 | 1 nM | 144 nM | 44 nM | 93 nM | 96 nM |  | C=C(OCC)c1nc(-c2ccc(NC(=O)Nc3ccncc3)cc2)nc(N2CCOCC2)n1 [Example 199, 1-{4-[4-(1-ethoxyvinyl)-6-morpholin-4-yl-1,3,5-triazin-2-yl]phenyl}-3-pyridin-4-ylurea] | 
19 | 6.5 nM and 6.45 nM | 128 nM | 14 nM | 248 nM | 162 nM | 248 nM | COCCOc1nc(-c2ccc(NC(=O)Nc3ccncc3)cc2)nc(N2CCOCC2)n1 [Example 200, 1-{4-[4-(2-methoxyethoxy)-6-morpholin-4-yl-1,3,5-triazin-2-yl]phenyl}-3-pyridin-4-ylurea] | IC50 ([2]; listed as 714): 69 nM; IC50 ([3]; listed as 714): 15.5 nM
20 | 9 nM | 99 nM | 24 nM | 278 nM | 174 nM |  | CC(=O)c1nc(-c2ccc(NC(=O)Nc3ccncc3)cc2)nc(N2CCOCC2)n1 [Example 209, 1-[4-(4-acetyl-6-morpholin-4-yl-1,3,5-triazin-2-yl)phenyl]-3-pyridin-4-ylurea] | 

Row | Structure (SMILES) | IC50 [1] | IC50 [2] | IC50 [3] | IC50 [4] | IC50 [5] | IC50 ([4]; PC3-mm2 cells) | further results
21 | CN1C2CCC1CC(Oc1nc(-c3ccc(NC(=O)Nc4ccncc4)cc3)nc(N3CCOCC3)n1)C2 (centres unmarked) [Example 102, 1-{4-[4-(8-methyl-8-aza-bicyclo[3.2.1]oct-3-yloxy)-6-morpholin-4-yl-[1,3,5]triazin-2-yl]-phenyl}-3-pyridin-4-yl-urea] | 6.1 nM | 84 nM | 6 nM | 854 nM | 592 nM |  | 
